Measurements taken from PMC6661766, “Antimicrobial, antioxidant and cytotoxic evaluation of diazenyl chalcones along with insights to mechanism of interaction by molecular docking studies” (BMC Chemistry, 2019).
Converted amounts (≈) assume the structure as drawn.

Experiments:
B. cereus = assay: Antimicrobial serial tube dilution, MIC and MBC; format: cell-based, Bacillus cereus MTCC 1305; conditions: Bacillus cereus; for MIC: 24 h, read-out: B. cereus MIC; for MBC: read-out: B. cereus MBC
Description: (§1) The synthesized diazenyl chalcones (C18 to C27) and controls (dyes A and E, and chalcone) were assessed for their antimicrobial activity by estimation of MIC and MBC/MFC values. […] The stock solutions of the test compounds and standard drugs having a concentration of 1000 µg ml^−1 were prepared by dissolving the used compounds in DMSO. The nutrient broth/Sabouraud dextrose broth was used for the serial dilution of the test compounds and referenced drugs for bacterial and fungal cultures, respectively. […] The size of the final inoculum in each test tube was taken as 5 × 10^5 CFU ml^−1. The incubation of the test and standard compounds of varying concentrations was done for 24 h at 37 ± 2 °C (bacterial culture) and for 48 h at 37 ± 2 °C (C. albicans) and for 7 d at 25 ± 2 °C (A. fumigatus). The diazenyl chalcones (C18–C27), were further evaluated for their bactericidal/fungicidal activity by estimation of MBC/MFC values. […] For proper mixing of culture media, the plates were shaken gently followed by incubation at the predefined temperature and time as stated earlier, followed by the visual inspection of the plates for signs of microbial growth.

S. typhi = assay: Antimicrobial serial tube dilution, MIC and MBC; format: cell-based, Salmonella typhi MTCC 3216; conditions: Salmonella enterica, TYPHI; for MIC: 24 h, read-out: S. typhi MIC; for MBC: read-out: S. typhi MBC
Description: as §1

E. coli = assay: Antimicrobial serial tube dilution, MIC and MBC; format: cell-based, Escherichia coli MTCC 1652; conditions: for MIC / MBC: Escherichia coli; for MIC: 24 h, read-out: E. coli MIC, 24 h at 37 ± 2 °C; for MBC: read-out: E. coli MBC
Description: as §1

S. aureus = assay: Antimicrobial serial tube dilution, MIC and MBC; format: cell-based, Staphylococcus aureus MTCC 2901; conditions: Staphylococcus aureus; for MIC: 24 h, read-out: S. aureus MIC; for MBC: read-out: S. aureus MBC
Description: as §1

B. subtilis = assay: Antimicrobial serial tube dilution, MIC and MBC; format: cell-based, Bacillus subtilis MTCC 2063; conditions: Bacillus subtilis; for MIC: 24 h, read-out: B. subtilis MIC; for MBC: read-out: B. subtilis MBC
Description: as §1

C. albicans = assay: Antimicrobial serial tube dilution, MIC and MFC; format: cell-based, Candida albicans MTCC 227; conditions: Candida albicans; for MIC: 48 h, read-out: C. albicans MIC; for MFC: read-out: C. albicans MFC
Description: as §1

A. fumigatus = assay: Antimicrobial serial tube dilution, MIC and MFC; format: cell-based, Aspergillus fumigatus MTCC 2584; conditions: Aspergillus fumigatus; for MIC: 168 h, read-out: A. fumigatus MIC; for MFC: read-out: A. fumigatus MFC
Description: as §1

[1] = DPPH scavenging antioxidant assay
Description: The derivatives (C18–C27) were assessed for their antioxidant potential in the presence of the stable free radical DPPH using ascorbic acid as the standard compound [36, 37]. […] The total volume of 200 µl was used in each well for each concentration of the test and standard drug containing 0.004 µg DPPH. The assay was performed in triplicate at all concentrations of each sample and standard compound. DPPH solutions in methanol at the same concentration without test drugs were used as the control. Each concentration of the sample and standard has a different blank. To minimize evaporation, the plate was covered with the lid and wrapped in aluminium foil and kept in the dark place in order to protect the DPPH radical from degradation by light and left for 30 min. After 30 min of incubation, the plate was kept in ELISA reader to measure the absorbance values at 517 nm. The experiment was performed in triplicate. The antioxidant activity of each sample was then calculated as per cent inhibition of DPPH according to the following equation: %decolourationofDPPH=ControlAbs-SampleAbs×100/ControlAbs

[2] = test system: A549 human lung cancer cell line; assay: MTT cytotoxicity assay, A549; format: cell-based; conditions: for IC50: Homo sapiens, A549, MTT, 48 h
Description: (§2) The cell lines employed in the investigation were purchased from the National Centre for Cell Sciences (NCCS), Pune, India. The cell lines were cultured in DMEM fortified with 10% FBS, L-glutamine, sodium bicarbonate, and solution of antibiotics (streptomycin 100 μg ml^−1 + penicillin-100 U ml^−1). The culture of cell lines was stored under 5% CO2 incubation at 37 °C.
(§3) The compounds showing maximum activity (antimicrobial and antioxidant potential) were screened for cytotoxicity against A549 and HEK cell lines using MTT assay. Initially, 96-well microculture plate was seeded with 1 × 10^4 cells in 100 µl/well DMEM/MEM, supplemented with 10% FBS followed by incubation at a temperature of 37 °C for a period of 24 h under 5% CO2 atmosphere. After that, the test compounds and camptothecin were added to the cells to achieve a concentration of 10, 25, 50 and 100 µg. MTT reagent (10 µl) of concentration of 5 mg ml^−1 added to all the wells after the duration of 48 h. The plate was incubated further for 4 h followed by careful removal of supernatant from each well. To dissolve the formazan crystals, 100 µl of DMSO was added, and the ELISA reader was used to check the absorbance at 570 nm wavelength. In order to calculate the IC50 concentration, the following equation, i.e. A = Bx + C, was used. In this case, A = 50, while the values B and C values were obtained from the survival curve plot. This study was carried out in duplicate.

[3] = test system: HEK human embryonic kidney cells; assay: MTT cytotoxicity assay, HEK; format: cell-based; conditions: 48 h
Description: as §2, §3

tested bacterial strains = assay: Antimicrobial serial tube dilution, ranges over several bacterial strains; format: cell-based; conditions: over tested bacterial strains
Description: as §1

Row | Structure (SMILES) | MIC (B. cereus) [µg/mL] | MBC (B. cereus) [µg/mL] | MIC (S. typhi) [µg/mL] | MBC (S. typhi) [µg/mL] | MIC (E. coli) [µg/mL] | MBC (E. coli) [µg/mL] | MIC (S. aureus) [µg/mL] | MBC (S. aureus) [µg/mL] | MIC (B. subtilis) [µg/mL] | MBC (B. subtilis) [µg/mL] | MIC (C. albicans) [µg/mL] | MFC (C. albicans) [µg/mL] | MIC (A. fumigatus) [µg/mL] | MFC (A. fumigatus) [µg/mL] | IC50 DPPH [1] [µg/mL] | % inhibition of DPPH ([1]; 1.56 µg ml^−1) [%] | % inhibition of DPPH ([1]; 3.12 µg ml^−1) [%] | % inhibition of DPPH ([1]; 6.25 µg ml^−1) [%] | % inhibition of DPPH ([1]; 12.5 µg ml^−1) [%] | % inhibition of DPPH ([1]; 25 µg ml^−1) [%] | other results
1 | O=C(/C=C\c1cc(Br)ccc1O)c1ccc(N=Nc2ccc([N+](=O)[O-])cc2Cl)c(O)c1 [Compound C-22, (2Z)-3-(5-Bromo-2-hydroxyphenyl)-1-(4-((2-chloro-4-nitrophenyl)diazenyl)-3-hydroxyphenyl) prop-2-en-1-one] | 3.9 (≈ 7.76 µM) | 3.9 (≈ 7.76 µM) | 3.9 (≈ 7.76 µM) | 7.81 (≈ 15.5 µM) | 1.95 (≈ 3.88 µM) | 7.81 (≈ 15.5 µM) | 3.9 (≈ 7.76 µM) | 31.2 (≈ 62.2 µM) | 1.95 (≈ 3.88 µM) | 7.81 (≈ 15.5 µM) | 31.2 (≈ 62.2 µM) | 31.2 (≈ 62.2 µM) | 62.5 (≈ 124 µM) | 125 (≈ 249 µM) | > 100 | 8.25 | 9.26 | 10.25 | 11.79 | 14.15 | % inhibition of DPPH ([1]; 50 µg ml^−1): 16.34%; % inhibition of DPPH ([1]; 100 µg ml^−1): 23.27%; IC50 [2]: 156.4 ± 1.23 µg/mL (≈ 311 µM); IC50 [3]: 296.4 ± 2.32 µg/mL (≈ 590 µM); MBC range (tested bacterial strains): 3.90 to 7.81 µg/mL; MIC range (tested bacterial strains): 1.95 to 3.90 µg/mL; melting point: 160 to 162 °C
2 | O=Cc1ccc(/C=C\C(=O)c2ccc(N=Nc3c(O)cccc3O)cc2)cc1 [Compound C-23, 4-((1Z)-3-(4-((2,6-Dihydroxyphenyl)diazenyl)phenyl)-3-oxoprop-1-en-1-yl)benzaldehyde] | 62.5 (≈ 168 µM) | 62.5 (≈ 168 µM) | 31.2 (≈ 83.9 µM) | 62.5 (≈ 168 µM) | 7.81 to 15.6 (≈ 21 to 41.9 µM) | 15.6 (≈ 41.9 µM) | 125 (≈ 336 µM) | 125 (≈ 336 µM) | 62.5 (≈ 168 µM) | 62.5 (≈ 168 µM) | 125 (≈ 336 µM) | 125 (≈ 336 µM) | 62.5 (≈ 168 µM) | 125 (≈ 336 µM) | 17.82 (≈ 47.9 µM) | 19.03 | 25.53 | 35.86 | 50.45 | 70.53 | E. coli MIC (E. coli; 24 h at 37 ± 2 °C): 15.62 µg/mL; % inhibition of DPPH ([1]; 50 µg ml^−1): 83.17%; % inhibition of DPPH ([1]; 100 µg ml^−1): 95.68%; log IC50 DPPH ([1]; Fig. 1): 1.251; IC50 [2]: 171 ± 2.46 µg/mL (≈ 460 µM); IC50 [3]: 190.1 ± 1.56 µg/mL (≈ 511 µM); melting point: 182 to 184 °C
3 | O=Cc1ccc(/C=C\C(=O)c2cccc(N=Nc3cccc(Cl)c3Cl)c2O)cc1 [Compound C-25, 4-((1Z)-3-(3-((2,3-Dichlorophenyl)diazenyl)-2-hydroxyphenyl)-3-oxoprop-1-en-1-yl)benzaldehyde] | 125 (≈ 294 µM) | 125 (≈ 294 µM) | 125 (≈ 294 µM) | 125 (≈ 294 µM) | 62.5 (≈ 147 µM) | 125 (≈ 294 µM) | 62.5 (≈ 147 µM) | 62.5 (≈ 147 µM) | 15.6 (≈ 36.7 µM) | 62.5 (≈ 147 µM) | 31.2 (≈ 73.5 µM) | 62.5 (≈ 147 µM) | 62.5 (≈ 147 µM) | 62.5 (≈ 147 µM) | > 100 | 9.71 | 10.38 | 11.36 | 13.56 | 14.91 | % inhibition of DPPH ([1]; 50 µg ml^−1): 15.67%; % inhibition of DPPH ([1]; 100 µg ml^−1): 20.34%; Morphological changes in A549 cell line ([2]; C-25 at 50 and 25 µg ml^−1, Fig. 2): reduced the number and clumping of A549 cells to a significant extent; IC50 [2]: 18 ± 1.34 µg/mL (≈ 42.3 µM); Cytotoxicity against A549 cell line in words ([2]; compared with camptothecin): comparable cytotoxicity to camptothecin; IC50 [3]: 270 ± 2.82 µg/mL (≈ 635 µM); melting point: 96 to 98 °C
